Experimental findings from patent US20090325956A1, “Aromatic amine derivative and use thereof” (priority 2006, published 2009) are described below.

Where a name gives a salt, the structure may show the parent alone.

One experiment has as its target T1, SCD (rat liver microsome) (Rattus norvegicus, UniProt P07308).
T1 construct: an enzyme reaction using rat liver microsome (20 μg) was performed for 15 min; from tissue; host or cells: rat liver microsome fraction
T1 sequence (P07308 1-358): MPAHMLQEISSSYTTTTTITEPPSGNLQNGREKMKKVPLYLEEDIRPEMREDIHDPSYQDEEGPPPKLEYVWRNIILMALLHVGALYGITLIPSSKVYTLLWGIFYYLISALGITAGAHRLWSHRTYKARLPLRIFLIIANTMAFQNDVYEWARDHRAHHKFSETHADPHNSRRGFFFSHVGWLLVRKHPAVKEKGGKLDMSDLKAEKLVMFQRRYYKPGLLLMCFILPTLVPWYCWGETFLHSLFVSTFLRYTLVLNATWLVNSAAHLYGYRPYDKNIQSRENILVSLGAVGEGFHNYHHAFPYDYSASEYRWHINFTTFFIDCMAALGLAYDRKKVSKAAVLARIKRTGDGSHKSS
The experiment is described as follows: Measurement of SCD inhibitory activity using microsome (TLC detection system). The note with it: test compound 10 μM; rat liver microsome (20 μg), [14C] stearoyl-CoA, 15 min. In kind it is biochemical. The method, then: “Test Method” Measurement of SCD Inhibitory Activity Using Microsome (TLC Detection System)
A test compound (10 mM) diluted with DMSO in advance was secondarily diluted to 3/1000 with 3× buffer (300 mmol/L NaH2PO4 [pH 7.4], 450 mM KCl, 30 mM NaF, 9 mM MgCl2, 4.5 mM glutathione [reduced form], 0.3% BSA [fatty acid free, SIGMA]). The test compound (10 μL) diluted with the assay buffer was dispensed to a PP 96-deep well block, and a microsome fraction (10 μL) diluted with a microsome buffer was added thereto. The enzyme reaction was started by the addition of 10 μL of [^14C] stearoyl-CoA (American Radiolabeled Chemicals [ARC], Inc.) diluted to 10 μCi/mL with 9 mmol/L NADH. For evaluation of the compound, an enzyme reaction using rat liver microsome (20 μg) was performed for 15 min. The reaction was quenched by the addition of 10 μL of 2.5N NaOH, a plate seal was applied, and the reaction mixture was incubated overnight in a dry heater set to 65° C. to allow saponification. Solvent extraction of fatty acid was based on the Bligh&Dyer method (1). Formic acid:methanol:chloroform (1:6:3) (200 μL) was added, the state of single layer was maintained, the mixture was sufficiently stirred, and pure water (120 μL) was added to allow separation into two layers. The lower chloroform layer (10 μL) was spotted on reversed-phase TLC plate (RP-18, 1154230001, Merck Japan, Ltd.) and developed with acetonitrile:pure water:acetic acid (95:4.5:0.5). The TLC plate was dried and transferred onto an Imaging Plate (Fuji Photo Film Co., Ltd.) for not less than 5 hr. For detection, BAS-5000 (Fuji Photo Film Co., Ltd) was used and the obtained spot images were converted to numerical values using Multi Gauge Ver2.3 (Fuji Photo Film Co., Ltd), based on which the SCD activity inhibitory rate (%) was determined.
On to `CCc1cccc(NC(=O)N2CCOC(COc3cc(F)ccc3Cl)C2)n1` (centres unmarked) [Example 202, 2-[(2-chloro-5-fluorophenoxy)methyl]-N-(6-ethylpyridin-2-yl) morpholine-4-carboxamide], for which the “SCD activity inhibitory rate (%)” value is listed as 92%.

Staying with this experiment, now noted: test compound 10 μM; rat liver microsome (20 μg), [14C] stearoyl-CoA, 15 min; read-out: SCD activity inhibitory rate (%).
As to `CN(Cc1cccc(C(=O)Nc2cnn(Cc3ccc(F)cc3)c2)c1)c1ccccc1Cl` [Example 225, 3-{[(2-chlorophenyl)(methyl)amino]methyl}-N-[1-(4-fluorobenzyl)-1H-pyrazol-4-yl]benzamide], the inhibition at 10 µM amounted to 93%. Turning to `O=C(Nc1cnn(CCO)c1)c1cc(COc2ccccc2Cl)ccn1` [Example 169, 4-[(2-chlorophenoxy)methyl]-N-[1-(2-hydroxyethyl)-1H-pyrazol-4-yl]pyridine-2-carboxamide], the inhibition at 10 µM was found to be 88%. On the same count and under the same terms, next, `Cc1cc(C)nc(NC(=O)c2ccc(Cn3cnc4ccccc43)cc2)c1` [Example 108, 4-(1H-benzimidazol-1-ylmethyl)-N-(4,6-dimethylpyridin-2-yl)benzamide]: 97%. In the case of `NC(=O)c1ccsc1NC(=O)c1cccc(COc2cc(Cl)ccc2Cl)c1` [Example 93, 2-({3-[(2,5-dichlorophenoxy)methyl]benzoyl}amino)thiophene-3-carboxamide], the inhibition at 10 µM stood at 83%. Same read-out and setting: for `Cc1nn(Cc2ccccc2)c2sc(C(=O)Nc3ccc(Cn4cccn4)cc3)cc12` [Example 118, 1-benzyl-3-methyl-N-[4-(1H-pyrazol-1-ylmethyl)phenyl]-1H-thieno[2,3-c]pyrazole-5-carboxamide] the value was 86%; for `O=C(Nc1cnn(Cc2ccc(F)cc2)c1)c1cccc(COc2ccccc2)c1` [Example 149, N-[1-(4-fluorobenzyl)-1H-pyrazol-4-yl]-3-(phenoxymethyl)benzamide], 97%. As to `O=C(Nc1ccc(Cn2cccn2)cc1)c1ccnc(COc2cc(Cl)ccc2Cl)c1` [Example 116, 2-[(2,5-dichlorophenoxy)methyl]-N-[4-(1H-pyrazol-1-ylmethyl)phenyl]isonicotinamide], the inhibition at 10 µM was 100%. Same read-out and setting: next, `O=C(Nc1cnn(Cc2ccc(F)cc2)c1)c1ccc(Cn2cnc3ccccc32)cc1` [Example 99, 4-(1H-benzimidazol-1-ylmethyl)-N-[1-(4-fluorobenzyl)-1H-pyrazol-4-yl]benzamide]: 93%; `Cc1cc(C)nc(NC(=O)c2cc(COc3cc(Cl)ccc3Cl)ccn2)c1` [Example 113, 4-[(2,5-dichlorophenoxy)methyl]-N-(4,6-dimethylpyridin-2-yl)pyridine-2-carboxamide]: 86%.

In the case of `O=C(Nc1cnn(Cc2ccc(F)cc2)c1)c1cccc(CNc2ccccc2Cl)c1` [Example 201, 3-{[(2-chlorophenyl)amino]methyl}-N-[1-(4-fluorobenzyl)-1H-pyrazol-4-yl]benzamide], the inhibition at 10 µM is 99%. Still for that read-out and setting: for `O=C(Nc1ccc(Cn2cccn2)cc1)N1CCCC(COc2cc(Cl)ccc2Cl)C1` (centres unmarked) [Example 167, 3-[(2,5-dichlorophenoxy)methyl]-N-[4-(1H-pyrazol-1-ylmethyl)phenyl]piperidine-1-carboxamide] the value was 85%; for `O=C(Nc1ccc(CO)cn1)N1CCOC(COc2cc(F)ccc2Cl)C1` (centres unmarked) [Example 212, 2-[(2-chloro-5-fluorophenoxy)methyl]-N-[5-(hydroxymethyl)pyridin-2-yl]morpholine-4-carboxamide], 97%; for `Cc1cc(C)nc(NC(=O)N2CCOC(COc3ccccc3F)C2)c1` (centres unmarked) [Example 59, N-(4,6-dimethylpyridin-2-yl)-2-[(2-fluorophenoxy)methyl]morpholine-4-carboxamide trifluoroacetate], 88%.
